Source: patent publication EP0778025A1, “Use of 8,9-dehydroestrone for the manufacture of a medicament for the treatment of diseases caused by free radicals” (AMERICAN HOME PRODUCTS CORPORATION, priority 1995, dated 1997)
Read-outs that look alike come from different tables or passages of the source.

How the values were obtained:
[1] = test system: low density lipoprotein (LDL); experiment: Inhibition of Cu++ mediated LDL oxidation (TBARS method)
J774 macrophages = experiment: Binding of Cu++-treated 125I-LDL to J774 macrophages (scavenger lipoprotein receptors); assay type: cell-based; conditions: Mus musculus
From the text: In the first test procedure, radiolabeled-LDL (^125I-LDL) (McFarlane AS, In: Munro HN, Allison JB, eds. Mammalian Protein metabolism, Vol. 1. New York: Academic Press 297-341 (1964)) was modified by exposure to Cu++ in the presence and absence of 8,9-dehydroestrone. Next, J774 macrophages, which express scavenger lipoprotein receptors which bind oxidatively modified-LDL, were exposed to the treated ^125I-LDL. […] By comparison, the same concentrations of estrone reduced the binding of LDL that was oxidized by 39% and 0%, respectively. Since binding and metabolism of oxidized LDL by macrophages is though to contribute strongly to the development of foam cells and therefore, atherosclerotic plaque, this effect of reducing LDL oxidation and subsequent binding to scavenger receptors is thought to be of significant benefit.

[2] = test system: porcine aortic endothelial cells (PAEC); experiment: MTT cytotoxicity assay of porcine aortic endothelial cells exposed to Cu++-treated LDL; assay type: cell-based; conditions: 25 ug/ml LDL Cu++ treated in presence of compound (2.5µM stated for 8,9-dehydroestrone), 24 hr incubation, 2% viable without compound
Method: In the second test procedure, porcine aortic endothelial cells (PAEC) were exposed to LDL that had been modified as above, by exposure to Cu++ in the presence and absence of 8,9-dehydroestrone. […] Subsequent to a 24 hr incubation of the cells with the treated LDL, an MTT assay was performed to assess cytotoxicity (Hansen MB, J Immu Methods 119:203-210 (1989)). This test procedure assesses the percent of cells that are viable (live) in a given assay. In the assay, following exposure to 25 ug/ml LDL oxidized in the absence of compound, only 2% of the cells remained viable. In contrast, the percent live cells following exposure to LDL Cu++ treated in the presence of 8,9-dehydroestrone (2.5µM) was 100% or greater.

[3] = J774, read-out: reduction of binding of the LDL that was oxidized

Q: With C[C@]12CCC3=C(CCc4cc(O)ccc43)[C@@H]1CCC2=O [8,9-dehydroestrone] as the compound, how does the IC50 ([1]; Cu++ mediated LDL oxidation, TBARS) read?
A: 220 nM

Q: What about the “inhibition of LDL oxidation” value ([1]; maximal inhibition, stated for the test procedure in general (Cu++ or endothelial cell induced)) of the same compound?
A: ≤ 100%

Q: What about the inhibition at 0.25 µM (J774 macrophages; [3]) of the same compound?
A: 56%

Q: What about the inhibition at 2.5 µM (J774 macrophages; [3]) of the same compound?
A: 72%

Q: What about the percent live cells [2] of the same compound?
A: ≥ 100%

Q: How did the percent live cells [2] turn out when C[C@]12CC[C@H]3C(=CCc4cc(O)ccc43)[C@@H]1CCC2=O [Equilin, reference compound] was run?
A: 4%

Q: C[C@]12CC[C@@H]3c4ccc(O)cc4CC[C@H]3[C@@H]1CCC2=O [estrone] was tested. Which inhibition at 0.25 µM (J774 macrophages; 0.25 µM compound present during Cu++ oxidation of 125I-LDL, J774 macrophages, read-out: reduction of binding of the LDL that was oxidized) did it give?
A: 0%

Q: What about the inhibition at 2.5 µM (J774 macrophages; 2.5 µM compound present during Cu++ oxidation of 125I-LDL, J774 macrophages, read-out: reduction of binding of the LDL that was oxidized) of the same compound?
A: 39%
